Source: US20100190788A1, “Amide derivatives as kinase inhitors” (priority 2005, published 2010)

Molecular target: T1, human ROCKα/ROCKII mix (Homo sapiens, UniProt O75116)
T1 construct: purchased Upstate Biotechnology 14-451
Assay: ROCK inhibition, fluorescence polarization (FP) assay with ROCK IMAP Kit
Format: biochemical
Conditions: Table 1, compounds of Formula IV20
Experimental: The compounds were tested for inhibition of human ROCKα/ROCKII mix.
The inhibition assays were performed with a fluorescence polarization (FP) assay using the commercially available ROCK IMAP Kit from Molecular Devices (Product ID. No. R8093), essentially in accordance with the protocol supplied by the manufacturer. […] The enzyme mix ROCKα/ROCKII was obtained from Upstate Biotechnology (Product ID No 14-451).
In summary, all compounds were screened in the wells of a 384 well plate for enzymatic inhibition with concentrations varying from 100 μM to 0.3 nM using a stepwise 3 (or 2)-fold dilution.
To perform the assay, 1 μl of a solution of the compound to be tested in DMSO (at each concentration) was added to 2 μl of a solution of the enzyme in 10 mM Tris-HCl, 10 mM MgCl2, 0.1% BSA, 0.05% NaN3, pH 7.2. The final concentration of the enzyme was 2.6 nM.
After incubating for 30 minutes at RT, 2 μl of a mixture of ATP and the protein substrate in 10 mM Tris-HCl, 10 mM MgCl2, 0.1% BSA, 0.05% NaN3, pH 7.2 was added. The final concentration of the ATP was 10 μM and final concentration of protein substrate was 0.2 μM.
After incubating for 60 minutes at RT, 12 μl of the IMAP Binding Solution (mix of the IMAP Binding Buffer A (1×) and the IMAP Binding Reagent (from the ROCK IMAP kit)) was added.
The mixture thus obtained (total volume: 17 μl) was incubated for 60 minutes at RT, upon which the fluorescence polarization was measured using an automated plate reader (Perkin Elmer, Model Envision 2100-0010 HTS) with FP filters: excitation filter FITC FP 480 and emission filters FITC FP P-pol 535 and FITC FP S-pol 535 (Perkin-Elmer). The results were fitted to a curve using the XL-Fit algorithm and IC50 values were calculated for each fitted curve, again using the XL-Fit algorithm.

T1 sequence (O75116 whole entry): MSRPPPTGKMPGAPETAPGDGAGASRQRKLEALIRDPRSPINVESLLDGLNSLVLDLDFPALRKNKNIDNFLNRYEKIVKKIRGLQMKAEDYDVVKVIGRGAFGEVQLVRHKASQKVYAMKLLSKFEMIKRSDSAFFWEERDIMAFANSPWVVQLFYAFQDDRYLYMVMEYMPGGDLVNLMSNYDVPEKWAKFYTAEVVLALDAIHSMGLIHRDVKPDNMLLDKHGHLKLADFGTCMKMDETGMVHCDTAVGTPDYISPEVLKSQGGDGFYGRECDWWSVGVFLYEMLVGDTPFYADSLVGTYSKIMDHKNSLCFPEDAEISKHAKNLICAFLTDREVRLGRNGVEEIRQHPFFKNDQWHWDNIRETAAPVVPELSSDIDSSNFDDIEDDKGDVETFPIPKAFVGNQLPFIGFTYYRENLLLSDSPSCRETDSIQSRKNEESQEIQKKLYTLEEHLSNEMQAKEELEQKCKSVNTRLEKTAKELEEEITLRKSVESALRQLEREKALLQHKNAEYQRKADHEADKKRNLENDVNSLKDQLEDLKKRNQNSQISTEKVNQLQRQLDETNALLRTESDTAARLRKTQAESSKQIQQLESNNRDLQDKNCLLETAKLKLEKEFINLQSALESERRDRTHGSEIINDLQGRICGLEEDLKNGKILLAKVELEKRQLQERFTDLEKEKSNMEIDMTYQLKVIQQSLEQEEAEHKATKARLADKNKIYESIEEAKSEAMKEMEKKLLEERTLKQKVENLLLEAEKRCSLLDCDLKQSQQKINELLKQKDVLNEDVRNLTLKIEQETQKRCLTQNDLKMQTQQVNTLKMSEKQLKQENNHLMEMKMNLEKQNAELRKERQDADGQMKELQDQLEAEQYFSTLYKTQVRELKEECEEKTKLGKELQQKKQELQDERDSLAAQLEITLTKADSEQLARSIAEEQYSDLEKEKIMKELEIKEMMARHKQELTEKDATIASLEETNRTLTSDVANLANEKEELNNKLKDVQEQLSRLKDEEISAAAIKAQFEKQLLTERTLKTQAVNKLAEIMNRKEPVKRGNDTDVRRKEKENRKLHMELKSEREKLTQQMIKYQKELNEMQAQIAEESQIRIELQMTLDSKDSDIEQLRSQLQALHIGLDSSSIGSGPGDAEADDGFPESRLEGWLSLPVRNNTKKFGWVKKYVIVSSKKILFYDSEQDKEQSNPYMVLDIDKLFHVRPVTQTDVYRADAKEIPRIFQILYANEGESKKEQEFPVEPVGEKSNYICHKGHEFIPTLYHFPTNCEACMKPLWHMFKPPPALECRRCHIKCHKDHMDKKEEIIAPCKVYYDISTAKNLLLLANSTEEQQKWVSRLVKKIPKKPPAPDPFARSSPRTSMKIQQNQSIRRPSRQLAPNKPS

| Structure (SMILES) | IC50 |
| --- | --- |
| NC(C(=O)N1CCCC1c1cccc(F)c1)c1ccc(C(=O)Nc2ccncc2)cc1 (centres unmarked) [Compound 83, 4-{1-amino-2-[2-(3-fluoro-phenyl)-pyrrolidin-1-yl]-2-oxo-ethyl}-N-pyridin-4-yl-benzamide] | < 0.5 µM |

Same assay, conditions: Table 2, compounds of Formula V20

| Structure (SMILES) | IC50 |
| --- | --- |
| NC(CNS(=O)(=O)c1ccc(Oc2ccccc2)cc1)c1ccc(C(=O)Nc2ccncc2)cc1 (centres unmarked) [Compound 74, 4-[1-amino-2-(4-phenoxy-benzenesulfonylamino)-ethyl]-N-pyridin-4-yl-benzamide] | 0.5 to 5 µM |
| NC(CNS(=O)(=O)c1cccc(-c2ccccc2)c1)c1ccc(C(=O)Nc2ccncc2)cc1 (centres unmarked) [Compound 75] | 0.5 to 5 µM |
| NC(CNS(=O)(=O)c1ccc(-c2ccccc2)cc1)c1ccc(C(=O)Nc2ccncc2)cc1 (centres unmarked) [Compound 76] | 0.5 to 5 µM |
| NC(CNS(=O)(=O)c1cccc2ccccc12)c1ccc(C(=O)Nc2ccncc2)cc1 (centres unmarked) [Compound 77, 4-[1-amino-2-(naphthalene-1-sulfonylamino)-ethyl]-N-pyridin-4-yl-benzamide] | < 0.5 µM |
| NC(CNS(=O)(=O)c1cccs1)c1ccc(C(=O)Nc2ccncc2)cc1 (centres unmarked) [Compound 78, 4-[1-amino-2-(thiophene-2-sulfonylamino)-ethyl]-N-pyridin-4-yl-benzamide] | < 0.5 µM |
| Cc1noc(C)c1S(=O)(=O)NCC(N)c1ccc(C(=O)Nc2ccncc2)cc1 (centres unmarked) [Compound 79, 4-[1-amino-2-(3,5-dimethyl-isoxazole-4-sulfonylamino)-ethyl]-N-pyridin-4-yl-benzamide] | < 0.5 µM |
| Cc1nn(C)c(Cl)c1S(=O)(=O)NCC(N)c1ccc(C(=O)Nc2ccncc2)cc1 (centres unmarked) [Compound 80, 4-[1-amino-2-(5-chloro-1,3-dimethyl-1H-pyrazole-4-sulfonylamino)-ethyl]-N-pyridin-4-yl-benzamide] | 0.5 to 5 µM |
| NC(CNS(=O)(=O)c1cccc2nonc12)c1ccc(C(=O)Nc2ccncc2)cc1 (centres unmarked) [Compound 81, 4-[1-amino-2-(benzo[1,2,5]-oxadiazole-4-sulfonylamino)-ethyl]-N-pyridin-4-yl-benzamide] | < 0.5 µM |
| NC(CNS(=O)(=O)c1cccc2nsnc12)c1ccc(C(=O)Nc2ccncc2)cc1 (centres unmarked) [Compound 82, 4-[1-amino-2-(benzo[1,2,5]-thiadiazole-4-sulfonylamino)-ethyl]-N-pyridin-4-yl-benzamide] | < 0.5 µM |

Same assay, conditions: Table 3, compounds of Formula III20

| Structure (SMILES) | IC50 |
| --- | --- |
| NC(CC(=O)N1CCCC1c1ccccc1)c1ccc(C(=O)Nc2ccncc2)cc1 (centres unmarked) [Compound 84, 4-[1-amino-3-oxo-3-(2-phenyl-pyrrolidin-1-yl)-propyl]-N-pyridin-4-yl-benzamide] | < 0.5 µM |
| NC(CC(=O)N1CCCC1c1cccc(Cl)c1)c1ccc(C(=O)Nc2ccncc2)cc1 (centres unmarked) [Compound 85, 4-{1-amino-3-[2-(3-chloro-phenyl)-pyrrolidin-1-yl]-3-oxo-propyl}-N-pyridin-4-yl-benzamide] | < 0.5 µM |
| NC(CC(=O)N1CCCC1c1ccc(F)cc1)c1ccc(C(=O)Nc2ccncc2)cc1 (centres unmarked) [Compound 86, 4-{1-amino-3-[2-(4-fluoro-phenyl)-pyrrolidin-1-yl]-3-oxo-propyl}-N-pyridin-4-yl-benzamide] | < 0.5 µM |
| NC(CC(=O)N1CCCC1c1cccc(F)c1)c1ccc(C(=O)Nc2ccncc2)cc1 (centres unmarked) [Compound 87, 4-{1-amino-3-[2-(3-fluoro-phenyl)-pyrrolidin-1-yl]-3-oxo-propyl}-N-pyridin-4-yl-benzamide] | < 0.5 µM |
| NC(CC(=O)N1CCCC1c1cc(F)ccc1F)c1ccc(C(=O)Nc2ccncc2)cc1 (centres unmarked) [Compound 88, 4-{1-amino-3-[2-(2,5-difluoro-phenyl)-pyrrolidin-1-yl]-3-oxo-propyl}-N-pyridin-4-yl-benzamide] | < 0.5 µM |
| NC(CC(=O)N1CCCC1c1ccc(F)cc1F)c1ccc(C(=O)Nc2ccncc2)cc1 (centres unmarked) [Compound 89, 4-{1-amino-3-[2-(2,4-difluoro-phenyl)-pyrrolidin-1-yl]-3-oxo-propyl}-N-pyridin-4-yl-benzamide] | < 0.5 µM |
| NC(CC(=O)N1CCCC1c1ccc(Cl)cc1)c1ccc(C(=O)Nc2ccncc2)cc1 (centres unmarked) [Compound 90, 4-{1-amino-3-[2-(4-chloro-phenyl)-pyrrolidin-1-yl]-3-oxo-propyl}-N-pyridin-4-yl-benzamide] | < 0.5 µM |
